# Experimental data from US8178570B2, “Tie-2 modulators and methods of use” (Exelixis, Inc., priority 2003, dated 2012).
# Molecular target: Tie-2 (Homo sapiens, UniProt Q02763)
# Test: Tie-2 tyrosine kinase activity: kinase-dependent ATP consumption (pEY substrate, luciferase/luciferin chemiluminescence) or 33P-ATP incorporation into substrate
# Format: biochemical
# Conditions: Tie-2 (human enzyme) inhibition, Table 2, class symbols A-D
# Experimental: One measure of inhibition is Ki. […] The Ki for a compound is determined from the IC50 based on three assumptions. First, only one compound molecule binds to the enzyme and there is no cooperativity. […] Third, the enzymatic rate of the enzyme-inhibitor complex is zero. The rate (i.e., compound concentration) data are fitted to the equation:
# [formula] where V is the observed rate, Vmax, is the rate of the free enzyme, I0 is the inhibitor concentration, E0 is the enzyme concentration, and Kd is the dissociation constant of the enzyme-inhibitor complex.
# Tyrosine kinase activity is determined by 1) measurement of kinase-dependent ATP consumption by in the presence of a generic substrate such as polyglutamine, tyrosine (pEY), by luciferase/luciferin-mediated chemiluminescence or; 2) incorporation of radioactive phosphate derived from ^33P-ATP into a generic substrate which has been absorbed onto the well surface of polystyrene microtiter plates. Phosphorylated substrate products are quantified by scintillation spectrometry.
# Inhibition is indicated as IC50 with following key: A=IC50 less than 50 nM, B=IC50 greater than 50 nM, but less than or equal to 1000 nM, C=IC50 greater than 1000 nM, but less than 10,000 nM, and D=IC50 10,000 nM or greater. The abbreviation for human enzyme, Tie-2, is defined as tyrosine kinase with immunoglobulin and EGF repeats.
# Tie-2, sequence (Q02763 23-1124): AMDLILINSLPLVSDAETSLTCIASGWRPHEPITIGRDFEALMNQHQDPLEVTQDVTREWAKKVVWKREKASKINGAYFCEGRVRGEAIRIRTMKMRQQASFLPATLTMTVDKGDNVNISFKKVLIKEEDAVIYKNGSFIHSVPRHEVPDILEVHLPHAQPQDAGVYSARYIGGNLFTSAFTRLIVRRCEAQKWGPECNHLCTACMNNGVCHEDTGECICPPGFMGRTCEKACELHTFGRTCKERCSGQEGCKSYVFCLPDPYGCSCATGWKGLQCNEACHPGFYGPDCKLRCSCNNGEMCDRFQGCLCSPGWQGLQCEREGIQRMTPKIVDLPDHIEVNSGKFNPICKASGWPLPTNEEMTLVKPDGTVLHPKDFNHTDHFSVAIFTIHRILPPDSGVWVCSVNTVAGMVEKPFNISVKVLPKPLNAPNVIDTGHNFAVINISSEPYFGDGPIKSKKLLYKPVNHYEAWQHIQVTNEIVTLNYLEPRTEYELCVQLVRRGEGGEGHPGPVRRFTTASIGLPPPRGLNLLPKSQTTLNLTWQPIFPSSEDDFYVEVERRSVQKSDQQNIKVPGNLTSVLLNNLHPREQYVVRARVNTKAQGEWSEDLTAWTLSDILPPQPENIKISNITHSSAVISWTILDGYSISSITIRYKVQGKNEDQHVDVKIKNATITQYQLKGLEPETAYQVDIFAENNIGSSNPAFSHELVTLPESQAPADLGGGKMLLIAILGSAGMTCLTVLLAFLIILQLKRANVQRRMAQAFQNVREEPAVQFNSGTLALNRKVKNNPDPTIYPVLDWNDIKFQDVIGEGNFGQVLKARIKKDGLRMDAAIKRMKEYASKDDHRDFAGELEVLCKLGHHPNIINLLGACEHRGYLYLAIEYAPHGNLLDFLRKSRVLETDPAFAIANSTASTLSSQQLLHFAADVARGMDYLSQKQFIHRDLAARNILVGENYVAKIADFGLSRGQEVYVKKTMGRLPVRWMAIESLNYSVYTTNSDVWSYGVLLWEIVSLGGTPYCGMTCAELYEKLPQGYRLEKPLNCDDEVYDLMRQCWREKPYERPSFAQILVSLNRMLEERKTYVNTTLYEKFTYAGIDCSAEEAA
row,IC50,SMILES
1,< 50 nM,"Cc1nc(-c2ccnc(NCCN3CCOCC3)c2)nn1CCN(C(=O)Cc1cccc2ccccc12)C1CCCC1 [Entry 174, N-cyclopentyl-N-[2-(5-methyl-3-{2-[(2-morpholin-4-ylethyl)amino]pyridin-4-yl}-1H-1,2,4-triazol-1-yl)ethyl]-2-naphthalen-1-ylacetamide]"
2,1000 to 10000 nM,"O=C(Cc1cccc2ccccc12)N(CCn1nc(-c2ccccc2)nc1-c1ccncc1)C1CCCC1 [Entry 51, N-cyclopentyl-2-naphthalen-1-yl-N-[2-(3-phenyl-5-pyridin-4-yl-1H-1,2,4-triazol-1-yl)ethyl]acetamide]"
3,≥ 10000 nM,"COc1ccc(NC(=O)N(CCn2nc(-c3ccncc3)nc2-c2ccc(OC)c(Cl)c2)C2CCCC2)cc1 [Entry 91, N-(2-{5-[3-chloro-4-(methyloxy)phenyl]-3-pyridin-4-yl-1H-1,2,4-triazol-1-yl}ethyl)-N-cyclopentyl-N′-[4-(methyloxy)phenyl]urea]"
4,< 50 nM,"O=C(Cc1cccc2ccccc12)N(CCn1nc(-c2ccncc2)nc1-c1cccc(Br)c1)C1CCCC1 [Entry 65, N-{2-[5-(3-bromophenyl)-3-pyridin-4-yl-1H-1,2,4-triazol-1-yl]ethyl}-N-cyclopentyl-2-naphthalen-1-ylacetamide]"
5,≥ 10000 nM,"COc1ccc(-c2nc(-c3ccncc3)nn2CCN(C(=O)Nc2cc(Cl)ccc2OC)C2CCCC2)cc1Cl [Entry 142, N′-[5-chloro-2-(methyloxy)phenyl]-N-(2-{5-[3-chloro-4-(methyloxy)phenyl]-3-pyridin-4-yl-1H-1,2,4-triazol-1-yl}ethyl)-N-cyclopentylurea]"
6,50 to 1000 nM,"Cc1nc(-c2ccnnc2)nn1CCN(C(=O)Cc1cccc2ccccc12)C1CCCC1 [Entry 69, N-cyclopentyl-N-[2-(5-methyl-3-pyridazin-4-yl-1H-1,2,4-triazol-1-yl)ethyl]-2-naphthalen-1-ylacetamide]"
7,50 to 1000 nM,"Cc1nc(-c2ccncc2)nn1CCN(CC1CCCO1)C(=O)Cc1cccc2ccccc12 (stereo not drawn) [Entry 180, N-[2-(5-methyl-3-pyridin-4-yl-1H-1,2,4-triazol-1-yl)ethyl]-2-naphthalen-1-yl-N-(tetrahydrofuran-2-ylmethyl)acetamide]"
8,50 to 1000 nM,"O=C(Cc1cccc2ccccc12)N(CCc1nc(-c2ccncc2)no1)C1CCCC1 [Entry 52, N-cyclopentyl-2-naphthalen-1-yl-N-[2-(3-pyridin-4-yl-1,2,4-oxadiazol-5-yl)ethyl]acetamide]"
9,50 to 1000 nM,"COc1cccc(-c2nc(-c3ccncc3)n(CCN(C(=O)Cc3cccc4ccccc34)C3CCCC3)n2)c1 [Entry 23, N-cyclopentyl-N-(2-{3-[3-(methyloxy)phenyl]-5-pyridin-4-yl-1H-1,2,4-triazol-1-yl}ethyl)-2-naphthalen-1-ylacetamide]"
10,50 to 1000 nM,"Cc1nc(-c2ccc3nsnc3c2)nn1CCN(C(=O)Cc1cccc2ccccc12)C1CCCC1 [Entry 162, N-{2-[3-(2,1,3-benzothiadiazol-5-yl)-5-methyl-1H-1,2,4-triazol-1-yl]ethyl}-N-cyclopentyl-2-naphthalen-1-ylacetamide]"
11,≥ 10000 nM,"COc1ccc(-c2nc(-c3ccncc3)nn2CC(=O)NC2CCCC2)cc1Cl [Entry 3, 2-{5-[3-chloro-4-(methyloxy)phenyl]-3-pyridin-4-yl-1H-1,2,4-triazol-1-yl}-N-cyclopentylacetamide]"
12,< 50 nM,"CNc1cc(-c2nc(C)n(CCN(C(=O)Cc3cccc4ccccc34)C3CCCC3)n2)ccn1 [Entry 167, N-cyclopentyl-N-(2-{5-methyl-3-[2-(methylamino)pyridin-4-yl]-1H-1,2,4-triazol-1-yl}ethyl)-2-naphthalen-1-ylacetamide]"
13,≥ 10000 nM,"COc1ccc(-c2nc(-c3ccncc3)nn2CCN(C(=O)Nc2ccccc2-c2ccccc2)C2CCCC2)cc1Cl [Entry 102, N′-biphenyl-2-yl-N-(2-{5-[3-chloro-4-(methyloxy)phenyl]-3-pyridin-4-yl-1H-1,2,4-triazol-1-yl}ethyl)-N-cyclopentylurea]"
14,≥ 10000 nM,"CNc1nccc(-c2nc(C)n(CCN(C(=O)Cc3cccc4ccccc34)C3CCCC3)n2)n1 [Entry 161, N-cyclopentyl-N-(2-{5-methyl-3-[2-(methylamino)pyrimidin-4-yl]-1H-1,2,4-triazol-1-yl}ethyl)-2-naphthalen-1-ylacetamide]"
15,≥ 10000 nM,"COc1ccc(-c2nc(-c3ccncc3)nn2CCN(C(=O)Cc2cccc3ccccc23)C(C)C)cc1Cl [Entry 79, N-(2-{5-[3-chloro-4-(methyloxy)phenyl]-3-pyridin-4-yl-1H-1,2,4-triazol-1-yl}ethyl)-N-(1-methylethyl)-2-naphthalen-1-ylacetamide]"
16,≥ 10000 nM,"COc1ccc(-c2nc(-c3ccncc3)nn2CCN(C(=O)Nc2ccccc2)C2CCCC2)cc1Cl [Entry 30, N-(2-{5-[3-chloro-4-(methyloxy)phenyl]-3-pyridin-4-yl-1H-1,2,4-triazol-1-yl}ethyl)-N-cyclopentyl-N′-phenylurea]"
17,≥ 10000 nM,"COc1ccc(-c2nc(-c3ccncc3)nn2CCN(C(=O)Cc2cccc3ccccc23)C2CCN(C)CC2)cc1Cl [Entry 81, N-(2-{5-[3-chloro-4-(methyloxy)phenyl]-3-pyridin-4-yl-1H-1,2,4-triazol-1-yl}ethyl)-N-(1-methylpiperidin-4-yl)-2-naphthalen-1-ylacetamide]"
18,≥ 10000 nM,"COc1ccc(OC)c(NC(=O)N(CCn2nc(-c3ccncc3)nc2-c2ccc(OC)c(Cl)c2)C2CCCC2)c1 [Entry 120, N′-[2,5-bis(methyloxy)phenyl]-N-(2-{5-[3-chloro-4-(methyloxy)phenyl]-3-pyridin-4-yl-1H-1,2,4-triazol-1-yl}ethyl)-N-cyclopentylurea]"
19,< 50 nM,"Cc1ccc(-c2nc(-c3ccncc3)nn2CCN(C(=O)Cc2cccc3ccccc23)C2CCCC2)cc1 [Entry 70, N-cyclopentyl-N-{2-[5-(4-methylphenyl)-3-pyridin-4-yl-1H-1,2,4-triazol-1-yl]ethyl}-2-naphthalen-1-ylacetamide]"
20,50 to 1000 nM,"O=C(Cc1cccc2ccccc12)N(CCn1nc(-c2cccs2)nc1-c1ccncc1)C1CCCC1 [Entry 19, N-cyclopentyl-2-naphthalen-1-yl-N-{2-[5-pyridin-4-yl-3-(2-thienyl)-1H-1,2,4-triazol-1-yl]ethyl}acetamide]"
21,50 to 1000 nM,"Cc1nc(-c2ccnc(Nc3ccccc3)c2)nn1CCN(C(=O)Cc1cccc2ccccc12)C1CCCC1 [Entry 165, N-cyclopentyl-N-(2-{5-methyl-3-[2-(phenylamino)pyridin-4-yl]-1H-1,2,4-triazol-1-yl}ethyl)-2-naphthalen-1-ylacetamide]"
22,< 50 nM,"Cc1nc(-c2ccnc(NCCN3CCCCC3)n2)nn1CCN(C(=O)Cc1cccc2ccccc12)C1CCCC1 [Entry 183, N-cyclopentyl-N-[2-(5-methyl-3-{2-[(2-piperidin-1-ylethyl)amino]pyrimidin-4-yl}-1H-1,2,4-triazol-1-yl)ethyl]-2-naphthalen-1-ylacetamide]"
23,50 to 1000 nM,"Cc1nc(-c2ccnc(NCc3ccccc3)c2)nn1CCN(C(=O)Cc1cccc2ccccc12)C1CCCC1 [Entry 172, N-cyclopentyl-N-[2-(5-methyl-3-{2-[(phenylmethyl)amino]pyridin-4-yl}-1H-1,2,4-triazol-1-yl)ethyl]-2-naphthalen-1-ylacetamide]"
24,< 50 nM,"O=C(Cc1cccc2ccccc12)N(CCn1cnc(-c2ccncc2)n1)C1CCCC1 [Entry 44, N-cyclopentyl-2-naphthalen-1-yl-N-[2-(3-pyridin-4-yl-1H-1,2,4-triazol-1-yl)ethyl]acetamide]"
25,≥ 10000 nM,"COc1ccc(-c2nc(-c3ccncc3)nn2CCN(C(=O)Nc2ccc(F)cc2F)C2CCCC2)cc1Cl [Entry 116, N-(2-{5-[3-chloro-4-(methyloxy)phenyl]-3-pyridin-4-yl-1H-1,2,4-triazol-1-yl}ethyl)-N-cyclopentyl-N′-(2,4-difluorophenyl)urea]"
26,1000 to 10000 nM,"Cc1nc(-c2ccnc(N3CCOCC3)c2)nn1CCN(C(=O)Cc1cccc2ccccc12)C1CCCC1 [Entry 163, N-cyclopentyl-N-{2-[5-methyl-3-(2-morpholin-4-ylpyridin-4-yl)-1H-1,2,4-triazol-1-yl]ethyl}-2-naphthalen-1-ylacetamide]"
27,< 50 nM,"O=C(Cc1cccc2ccccc12)N(CCn1nc(-c2ccncc2)nc1-c1ccc(O)c(Cl)c1)C1CCCC1 [Entry 1, N-{2-[5-(3-chloro-4-hydroxyphenyl)-3-pyridin-4-yl-1H-1,2,4-triazol-1-yl]ethyl}-N-cyclopentyl-2-naphthalen-1-ylacetamide]"
28,1000 to 10000 nM,"COc1ccc(-c2nc(-c3ccncc3)nn2CCN(C(=O)Nc2cccc(C)c2C)C2CCCC2)cc1Cl [Entry 127, N-(2-{5-[3-chloro-4-(methyloxy)phenyl]-3-pyridin-4-yl-1H-1,2,4-triazol-1-yl}ethyl)-N-cyclopentyl-N′-(2,3-dimethylphenyl)urea]"
29,< 50 nM,"O=C(Cc1cccc2ccccc12)N(CCn1nc(-c2ccncc2)nc1-c1cccc(C(F)(F)F)c1)C1CCCC1 [Entry 45, N-cyclopentyl-2-naphthalen-1-yl-N-(2-{3-pyridin-4-yl-5-[3-(trifluoromethyl)phenyl]-1H-1,2,4-triazol-1-yl}ethyl)acetamide]"

row,SMILES,IC50
1,"Cc1nc(-c2ccncc2)nn1CCN(CCN(C)C)C(=O)Cc1cccc2ccccc12 [Entry 170, N-[2-(dimethylamino)ethyl]-N-[2-(5-methyl-3-pyridin-4-yl-1H-1,2,4-triazol-1-yl)ethyl]-2-naphthalen-1-ylacetamide]",1000 to 10000 nM
